Read-outs that look alike come from different tables or passages of the source.
How the values were obtained:
[1] = cited from earlier work
Tyromyces palustris = test: Standard rot trial (Japan Wood Preservers Association Standard Test procedure) on glueline-treated plywood; type: cell-based; conditions: phenol formaldehyde glue
[2] = Stability under the conditions of the glue-line treatment; type: physicochemical
decay causing fungi = test: Efficacy in the glue-line under alkaline conditions (PF type glues); conditions: alkaline conditions such as PF type glues
[3] = use rate 100 gram a.i./m^3 in the glueline of plywood from pinus spp
[4] = use rate 200 gram a.i./m^3 in the glueline of plywood from pinus spp
[5] = use rate 400 gram a.i./m^3 in the glueline of plywood from pinus spp
[6] = use rate 800 gram a.i./m^3 in the glueline of plywood from pinus spp

| Compound | Use rate range (agricultural uses) [1] | Efficacy against target organism (expressed as weight loss percent in a standard rot trial) (Tyromyces palustris; [3]) [%] | Efficacy against target organism (expressed as weight loss percent in a standard rot trial) (Tyromyces palustris; [4]) [%] | Efficacy against target organism (expressed as weight loss percent in a standard rot trial) (Tyromyces palustris; [5]) [%] | Efficacy against target organism (expressed as weight loss percent in a standard rot trial) (Tyromyces palustris; [6]) [%] | Stability under the conditions of the glue-line treatment ([2]; glue-line treatment) | Efficacy relative to triadimefon (decay causing fungi) | Stability under the conditions of the glue-line treatment [2] | Efficacy against target organism (expressed as weight loss percent in a standard rot trial) (Tyromyces palustris; use rate 80 gram a.i./m^3 in the glueline of plywood from pinus spp) [%] | Efficacy against target organism (expressed as weight loss percent in a standard rot trial) (Tyromyces palustris; use rate 160 gram a.i./m^3 in the glueline of plywood from pinus spp) [%] | Efficacy against target organism (expressed as weight loss percent in a standard rot trial) (Tyromyces palustris; use rate 320 gram a.i./m^3 in the glueline of plywood from pinus spp) [%] | Efficacy against target organism (expressed as weight loss percent in a standard rot trial) (Tyromyces palustris; use rate 640 gram a.i./m^3 in the glueline of plywood from pinus spp) [%] |
| --- | --- | --- | --- | --- | --- | --- | --- | --- | --- | --- | --- | --- |
| CC(C)(C)C(=O)C(Oc1ccc(Cl)cc1)n1cncn1 (racemic) [triadimefon, (±)1-(4-chlorophenoxy)-3,3-dimethyl-1-(1H-1,2,4-triazol-1-yl)butan-2-one] | 125–500 g/ha | 3.7 | 0.5 | 0.9 | 1.4 | stable | – | – | – | – | – | – |
| CC(C)(C)C(O)C(Oc1ccc(Cl)cc1)n1cncn1 (racemic) [triadimenol, (±) 1-(4-chlorophenoxy)-3,3-dimethyl-1-(1H-1,2,4-triazol-1-yl)butan-2-ol] | 125–500 g/ha | – | – | – | – | – | same efficacy as triadimefon | stable | – | – | – | – |
| CCCC1COC(Cn2cncn2)(c2ccc(Cl)cc2Cl)O1 (stereo not shown) [propiconazole] | 100–150 g/ha | 20.5 | 7.6 | 21.4 | 1.8 | – | – | – | – | – | – | – |
| CC(C)(C)C(O)(CCc1ccc(Cl)cc1)Cn1cncn1 (stereo not shown) [tebuconazole] | 100–250 g/ha | – | – | – | – | – | – | – | 9.2 | 20.9 | 6.3 | 18.5 |
